Test results published in PubChem BioAssay (NCI).
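Growth conditions: 96-well plates. Treatment: test compound, 48 hours, 5 concentrations. Analysis: linear interpolation between bracketing concentrations; unreached endpoints set to highest concentration. The concentration for 50% growth inhibition is given as GI50. TGI marks complete inhibition of growth.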

Experiments:
Experiment in all cases: DTP human tumour cell line panel, 48 h
ACHN renal = tested on: ACHN renal
NCI/ADR-RES ovarian = tested on: NCI/ADR-RES ovarian
SK-MEL-5 melanoma = tested on: SK-MEL-5 melanoma
T-47D breast = tested on: T-47D breast
OVCAR-4 ovarian = tested on: OVCAR-4 ovarian
HL-60(TB) leukemia = tested on: HL-60(TB) leukemia
DU-145 prostate = tested on: DU-145 prostate
NCI-H23 lung = tested on: NCI-H23 lung
SN12C renal = tested on: SN12C renal
LOX IMVI melanoma = tested on: LOX IMVI melanoma
OVCAR-3 ovarian = tested on: OVCAR-3 ovarian
HOP-92 NSCLC = tested on: HOP-92 NSCLC
HOP-62 NSCLC = tested on: HOP-62 NSCLC
RPMI-8226 leukemia = tested on: RPMI-8226 leukemia
NCI-H460 lung = tested on: NCI-H460 lung
CCRF-CEM leukemia = tested on: CCRF-CEM leukemia
NCI-H226 lung = tested on: NCI-H226 lung
786-0 renal = tested on: 786-0 renal
BT-549 breast = tested on: BT-549 breast
SF-295 CNS = tested on: SF-295 CNS
CAKI-1 renal = tested on: CAKI-1 renal
KM12 colon = tested on: KM12 colon
MALME-3M melanoma = tested on: MALME-3M melanoma
HCT-15 colon = tested on: HCT-15 colon
UACC-62 melanoma = tested on: UACC-62 melanoma
SNB-75 CNS = tested on: SNB-75 CNS
OVCAR-5 ovarian = tested on: OVCAR-5 ovarian
SF-539 CNS = tested on: SF-539 CNS
MOLT-4 leukemia = tested on: MOLT-4 leukemia
PC-3 prostate = tested on: PC-3 prostate
MDA-MB-468 breast = tested on: MDA-MB-468 breast
EKVX NSCLC = tested on: EKVX NSCLC
MDA-MB-231 breast = tested on: MDA-MB-231 breast
NCI-H522 lung = tested on: NCI-H522 lung
MCF7 breast = tested on: MCF7 breast
OVCAR-8 ovarian = tested on: OVCAR-8 ovarian
M14 melanoma = tested on: M14 melanoma
SW-620 colon = tested on: SW-620 colon
K-562 leukemia = tested on: K-562 leukemia
SNB-19 CNS = tested on: SNB-19 CNS
SK-MEL-28 melanoma = tested on: SK-MEL-28 melanoma
HCT-116 colon = tested on: HCT-116 colon
HCC-2998 colon = tested on: HCC-2998 colon
SK-OV-3 ovarian = tested on: SK-OV-3 ovarian
UO-31 renal = tested on: UO-31 renal
COLO 205 colon = tested on: COLO 205 colon
HS 578T breast = tested on: HS 578T breast
MDA-MB-435 = tested on: MDA-MB-435
A549 NSCLC = tested on: A549 NSCLC
SR leukemia = tested on: SR leukemia
SK-MEL-2 melanoma = tested on: SK-MEL-2 melanoma
HT29 colon = tested on: HT29 colon
RXF 393 renal = tested on: RXF 393 renal
UACC-257 melanoma = tested on: UACC-257 melanoma
TK-10 renal = tested on: TK-10 renal
SF-268 CNS = tested on: SF-268 CNS
A498 renal = tested on: A498 renal
U251 CNS = tested on: U251 CNS
IGROV1 ovarian = tested on: IGROV1 ovarian

Compound: C=C1CCC2C3(C)COC(c4ccc(F)cc4)OC3CCC2(C)C1C/C=C1/C(=O)OCC1O (configuration not stated)
- GI50 (ACHN renal): 1.69 µM
- TGI (ACHN renal): 3.06 µM
- GI50 (NCI/ADR-RES ovarian): 1.67 µM
- TGI (NCI/ADR-RES ovarian): 3.55 µM
- GI50 (SK-MEL-5 melanoma): 2.73 µM
- TGI (SK-MEL-5 melanoma): 8.58 µM
- GI50 (T-47D breast): 2.14 µM
- TGI (T-47D breast): 9.87 µM
- GI50 (OVCAR-4 ovarian): 2.11 µM
- TGI (OVCAR-4 ovarian): 5.9 µM
- GI50 (HL-60(TB) leukemia): 1.74 µM
- TGI (HL-60(TB) leukemia): 4.93 µM
- GI50 (DU-145 prostate): 3.86 µM
- TGI (DU-145 prostate): 13.8 µM
- GI50 (NCI-H23 lung): 3.08 µM
- TGI (NCI-H23 lung): 11.5 µM
- GI50 (SN12C renal): 1.48 µM
- TGI (SN12C renal): 3.18 µM
- GI50 (LOX IMVI melanoma): 1.5 µM
- TGI (LOX IMVI melanoma): 2.83 µM
- GI50 (OVCAR-3 ovarian): 1.83 µM
- TGI (OVCAR-3 ovarian): 3.6 µM
- GI50 (HOP-92 NSCLC): 2.17 µM
- TGI (HOP-92 NSCLC): 6.46 µM
- GI50 (HOP-62 NSCLC): 10.7 µM
- TGI (HOP-62 NSCLC): 22.9 µM
- GI50 (RPMI-8226 leukemia): 1.83 µM
- TGI (RPMI-8226 leukemia): 5.05 µM
- GI50 (NCI-H460 lung): 2.02 µM
- TGI (NCI-H460 lung): 5.48 µM
- GI50 (CCRF-CEM leukemia): 1.24 µM
- TGI (CCRF-CEM leukemia): 5.2 µM
- GI50 (NCI-H226 lung): 1.81 µM
- TGI (NCI-H226 lung): 3.58 µM
- GI50 (786-0 renal): 1.74 µM
- TGI (786-0 renal): 3.15 µM
- GI50 (BT-549 breast): 1.65 µM
- TGI (BT-549 breast): 3.19 µM
- GI50 (SF-295 CNS): 1.87 µM
- TGI (SF-295 CNS): 4.64 µM
- GI50 (CAKI-1 renal): 3.06 µM
- TGI (CAKI-1 renal): 11.5 µM
- GI50 (KM12 colon): 2.81 µM
- TGI (KM12 colon): 7.72 µM
- GI50 (MALME-3M melanoma): 2.06 µM
- TGI (MALME-3M melanoma): 5.16 µM
- GI50 (HCT-15 colon): 1.41 µM
- TGI (HCT-15 colon): 3.24 µM
- GI50 (UACC-62 melanoma): 1.94 µM
- TGI (UACC-62 melanoma): 4.8 µM
- GI50 (SNB-75 CNS): 1.58 µM
- TGI (SNB-75 CNS): 7.57 µM
- GI50 (OVCAR-5 ovarian): 2.01 µM
- TGI (OVCAR-5 ovarian): 4.9 µM
- GI50 (SF-539 CNS): 1.76 µM
- TGI (SF-539 CNS): 3.16 µM
- GI50 (MOLT-4 leukemia): 2.79 µM
- TGI (MOLT-4 leukemia): 8.13 µM
- GI50 (PC-3 prostate): 2.19 µM
- TGI (PC-3 prostate): 5.92 µM
- GI50 (MDA-MB-468 breast): 1.67 µM
- TGI (MDA-MB-468 breast): 3.21 µM
- GI50 (EKVX NSCLC): 4.57 µM
- TGI (EKVX NSCLC): 17.2 µM
- GI50 (MDA-MB-231 breast): 1.92 µM
- TGI (MDA-MB-231 breast): 4.03 µM
- GI50 (NCI-H522 lung): 1.45 µM
- TGI (NCI-H522 lung): 2.91 µM
- GI50 (MCF7 breast): 1.1 µM
- TGI (MCF7 breast): 2.88 µM
- GI50 (OVCAR-8 ovarian): 1.54 µM
- TGI (OVCAR-8 ovarian): 3.4 µM
- GI50 (M14 melanoma): 2.2 µM
- TGI (M14 melanoma): 5.92 µM
- GI50 (SW-620 colon): 1.25 µM
- TGI (SW-620 colon): 2.71 µM
- GI50 (K-562 leukemia): 2.09 µM
- GI50 (SNB-19 CNS): 4.84 µM
- TGI (SNB-19 CNS): 16.9 µM
- GI50 (SK-MEL-28 melanoma): 1.94 µM
- TGI (SK-MEL-28 melanoma): 4.02 µM
- GI50 (HCT-116 colon): 1.42 µM
- TGI (HCT-116 colon): 2.74 µM
- GI50 (HCC-2998 colon): 2.67 µM
- TGI (HCC-2998 colon): 8.69 µM
- GI50 (SK-OV-3 ovarian): 14.4 µM
- TGI (SK-OV-3 ovarian): 27.8 µM
- GI50 (UO-31 renal): 1.55 µM
- TGI (UO-31 renal): 3.67 µM
- GI50 (COLO 205 colon): 1.86 µM
- TGI (COLO 205 colon): 3.47 µM
- GI50 (HS 578T breast): 2.7 µM
- TGI (HS 578T breast): 9.69 µM
- GI50 (MDA-MB-435): 1.84 µM
- TGI (MDA-MB-435): 4.48 µM
- GI50 (A549 NSCLC): 3.07 µM
- TGI (A549 NSCLC): 13.1 µM
- GI50 (SR leukemia): 2.44 µM
- TGI (SR leukemia): 6.51 µM
- GI50 (SK-MEL-2 melanoma): 1.89 µM
- TGI (SK-MEL-2 melanoma): 3.89 µM
- GI50 (HT29 colon): 1.78 µM
- TGI (HT29 colon): 3.85 µM
- GI50 (RXF 393 renal): 2.41 µM
- TGI (RXF 393 renal): 6.54 µM
- GI50 (UACC-257 melanoma): 2.04 µM
- TGI (UACC-257 melanoma): 5.28 µM
- GI50 (TK-10 renal): 3.85 µM
- TGI (TK-10 renal): 14.9 µM
- GI50 (SF-268 CNS): 3.53 µM
- TGI (SF-268 CNS): 14.4 µM
- GI50 (A498 renal): 13.7 µM
- TGI (A498 renal): 27 µM
- GI50 (U251 CNS): 1.66 µM
- TGI (U251 CNS): 3.09 µM
- GI50 (IGROV1 ovarian): 2.78 µM
- TGI (IGROV1 ovarian): 10.1 µM
